The text below walks through data of PubChem BioAssay (NCI).

Some test systems named below: SW-620 colon; SK-MEL-5 melanoma; HT29 colon; NCI-H522 lung; COLO 205 colon; 786-0 renal; NCI/ADR-RES ovarian; EKVX NSCLC; HCT-116 colon; HCT-15 colon; SF-268 CNS.
What all share (test): growth of human tumour cells (NCI), 48 h

Molecules are shown by their SMILES.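 Dose response: 5 concentrations. Exposure: 48 h. Format: 96-well plates. Endpoint: linear interpolation; highest concentration if not reached. At the TGI there is no net growth.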

Turning to `Cc1nn2c(C(=O)N/N=C/c3ccc([N+](=O)[O-])cc3)c(C)nc2s1`, the TGI in the experiment with SW-620 colon, in the experiment on SK-MEL-5 melanoma, in the experiment on HT29 colon, with NCI-H522 lung, in the experiment on COLO 205 colon and in the experiment with 786-0 renal was greater than 100 µM each time. Further, the TGI in the experiment on NCI/ADR-RES ovarian, in the experiment on EKVX NSCLC, with HCT-116 colon, in the experiment on HCT-15 colon and in the experiment with SF-268 CNS was greater than 100 µM each time.
With `N#Cc1c(Cl)nc2ccccc2c1N=[N+]=[N-]`, the TGI with SW-620 colon was found to be 3.54 µM; in the experiment with SK-MEL-5 melanoma, 27.7 µM; with HT29 colon it was 3.26 µM; in the experiment with NCI-H522 lung, 4.62 µM; in the experiment on COLO 205 colon, 3.56 µM; in the experiment with 786-0 renal, 7.17 µM. Also, the TGI is 37.3 µM in the experiment on NCI/ADR-RES ovarian; 5.53 µM with EKVX NSCLC; 3.06 µM in the experiment with HCT-116 colon; 4.3 µM in the experiment with HCT-15 colon; 11.2 µM in the experiment on SF-268 CNS.
As to `Oc1ccccc1C1=NOC(c2ccc(C(F)(F)F)cc2)C1` (configuration not stated), the TGI in the experiment on SW-620 colon, with SK-MEL-5 melanoma, with HT29 colon, with NCI-H522 lung, in the experiment with COLO 205 colon and in the experiment with 786-0 renal was greater than 50 µM throughout. For the same molecule, the TGI in the experiment on NCI/ADR-RES ovarian, with EKVX NSCLC, in the experiment on HCT-116 colon, in the experiment on HCT-15 colon and in the experiment on SF-268 CNS was greater than 50 µM throughout.
As for `CC(C)(C)OC(=O)c1ccc(NCC2=CC(=O)C=CC2=O)cc1`, the TGI in the experiment on SW-620 colon was found to be 22.6 µM; with SK-MEL-5 melanoma it was 29 µM; in the experiment with HT29 colon, 35 µM; in the experiment on NCI-H522 lung it was 3.1 µM; in the experiment with COLO 205 colon, 7.21 µM; with 786-0 renal, 22 µM. For the same molecule, the TGI with NCI/ADR-RES ovarian stood at 28.2 µM; in the experiment with EKVX NSCLC it was 28.8 µM; in the experiment on HCT-116 colon, 26.2 µM; in the experiment with HCT-15 colon, 20.5 µM; with SF-268 CNS, 24.3 µM.
As to `COc1ccc(/C=C/C(=O)CC(=O)/C=C/c2ccc(OC)cc2)cc1`, the TGI was greater than 100 µM in the experiment on SW-620 colon; greater than 100 µM in the experiment on SK-MEL-5 melanoma; greater than 100 µM with HT29 colon; 67 µM with NCI-H522 lung; greater than 100 µM in the experiment on COLO 205 colon; 89.1 µM with 786-0 renal. Besides, the TGI with NCI/ADR-RES ovarian was greater than 100 µM; in the experiment on EKVX NSCLC, greater than 100 µM; with HCT-116 colon, 34.5 µM; with HCT-15 colon, greater than 100 µM; with SF-268 CNS, greater than 100 µM.
On to `CCOC(=O)/C=C/[C@H](O)[C@@H](O)/C=C/C(=O)OCC`, for which the TGI was 40.6 µM in the experiment on SW-620 colon; greater than 100 µM with SK-MEL-5 melanoma; 36.9 µM with HT29 colon; 39.2 µM with NCI-H522 lung; greater than 100 µM in the experiment with COLO 205 colon; greater than 100 µM with 786-0 renal. Besides, the TGI in the experiment on NCI/ADR-RES ovarian was greater than 100 µM; with EKVX NSCLC, 58.8 µM; in the experiment on HCT-116 colon it was 43 µM; with HCT-15 colon, 59.7 µM; in the experiment with SF-268 CNS, greater than 100 µM.
On to `CO[C@@H]1C[C@H]2N3CC[C@@]2(c2cc4c(cc2C3)OCO4)[C@H]2O[C@@H]12`, for which the TGI in the experiment with SW-620 colon is greater than 100 µM; in the experiment on SK-MEL-5 melanoma, 0.303 µM; with HT29 colon, greater than 100 µM; in the experiment with NCI-H522 lung, greater than 100 µM; in the experiment on COLO 205 colon, 2.24 µM; in the experiment with 786-0 renal it was greater than 100 µM. For the same molecule, the TGI with NCI/ADR-RES ovarian, in the experiment on EKVX NSCLC, in the experiment on HCT-116 colon, in the experiment on HCT-15 colon and in the experiment on SF-268 CNS was greater than 100 µM each time.
With `NC(=O)C(=O)C(c1ccccc1)S(=O)(=O)Cc1ccccc1` (configuration not stated), the TGI in the experiment on SW-620 colon, in the experiment with SK-MEL-5 melanoma, in the experiment on HT29 colon, with NCI-H522 lung, in the experiment on COLO 205 colon and with 786-0 renal was greater than 100 µM throughout. Also, the TGI in the experiment with NCI/ADR-RES ovarian, in the experiment on EKVX NSCLC, in the experiment with HCT-116 colon, with HCT-15 colon and in the experiment on SF-268 CNS was greater than 100 µM each time.
With `Cc1ccc(N2CCN(CCC(=O)O)CC2)cc1`, the TGI in the experiment with SW-620 colon, in the experiment with SK-MEL-5 melanoma, with HT29 colon, in the experiment on NCI-H522 lung, in the experiment on COLO 205 colon and with 786-0 renal was greater than 100 µM in each case. Besides, the TGI with NCI/ADR-RES ovarian, in the experiment on EKVX NSCLC, in the experiment with HCT-116 colon, with HCT-15 colon and in the experiment on SF-268 CNS was greater than 100 µM in each case.
In the case of `N#Cc1c(O)c(N=Nc2ccc(Cl)cc2)c(=O)n2c1[nH]c1ccccc12`, the TGI with SW-620 colon, with SK-MEL-5 melanoma, in the experiment with HT29 colon, in the experiment with NCI-H522 lung, in the experiment with COLO 205 colon and in the experiment with 786-0 renal was greater than 100 µM throughout. Further, the TGI with NCI/ADR-RES ovarian, in the experiment with EKVX NSCLC, with HCT-116 colon, with HCT-15 colon and with SF-268 CNS was greater than 100 µM in each case.
As to `CCCCCCOc1ccc(C(=O)N(C)O)cc1`, the TGI was greater than 100 µM with SW-620 colon; 62.5 µM in the experiment with SK-MEL-5 melanoma; 27.5 µM with HT29 colon; 90.6 µM in the experiment on NCI-H522 lung; 56 µM in the experiment on COLO 205 colon; 55.7 µM in the experiment on 786-0 renal. The TGI was 57.1 µM in the experiment on NCI/ADR-RES ovarian; greater than 100 µM in the experiment on EKVX NSCLC; greater than 100 µM in the experiment on HCT-116 colon; greater than 82.9 µM in the experiment with HCT-15 colon; 55.7 µM in the experiment with SF-268 CNS.
As for `CC(C)(C)OC/C=C1\C(=O)O[C@H]2C[C@@H](O[Si](C)(C)C(C)(C)C)C[C@@H]12`, the TGI in the experiment with SW-620 colon is greater than 100 µM; with SK-MEL-5 melanoma, greater than 100 µM; in the experiment with HT29 colon it was greater than 100 µM; with NCI-H522 lung, 90.7 µM; in the experiment on COLO 205 colon, greater than 100 µM; in the experiment on 786-0 renal, greater than 100 µM. Besides, the TGI with NCI/ADR-RES ovarian, with EKVX NSCLC, in the experiment with HCT-116 colon, in the experiment with HCT-15 colon and in the experiment with SF-268 CNS was greater than 100 µM each time.
